This note sets out measurements from ChEMBL document CHEMBL1158559, “Chromone-2- and -3-carboxylic acids inhibit differently monoamine oxidases A and B” (Bioorg Med Chem Lett, 2010).

Experiment [1] has as its target T1, Amine oxidase [flavin-containing] A (Homo sapiens, UniProt P21397).
T1 sequence (P21397 whole entry): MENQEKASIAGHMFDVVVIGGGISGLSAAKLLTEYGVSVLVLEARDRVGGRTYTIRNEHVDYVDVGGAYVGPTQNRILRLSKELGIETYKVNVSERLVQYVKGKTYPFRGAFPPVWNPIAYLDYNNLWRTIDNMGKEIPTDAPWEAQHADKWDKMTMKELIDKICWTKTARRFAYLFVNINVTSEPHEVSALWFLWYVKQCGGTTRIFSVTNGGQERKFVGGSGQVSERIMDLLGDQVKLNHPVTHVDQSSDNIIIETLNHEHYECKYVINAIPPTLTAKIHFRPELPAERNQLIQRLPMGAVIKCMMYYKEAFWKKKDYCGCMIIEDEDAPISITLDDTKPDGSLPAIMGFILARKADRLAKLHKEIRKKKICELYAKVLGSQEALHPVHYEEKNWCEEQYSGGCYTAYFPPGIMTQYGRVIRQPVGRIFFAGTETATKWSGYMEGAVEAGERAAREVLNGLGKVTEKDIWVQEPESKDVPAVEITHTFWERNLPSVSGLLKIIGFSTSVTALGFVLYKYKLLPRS
Nature of the experiment: Inhibition of human recombinant MAO-A assessed as inhibition of production of hydrogen peroxide at 100 uM after 15 mins by the Amplex Red fluorimetric method.

Experiment [2] has as its target T2, Amine oxidase [flavin-containing] B (Homo sapiens, UniProt P27338).
T2 sequence (P27338 whole entry): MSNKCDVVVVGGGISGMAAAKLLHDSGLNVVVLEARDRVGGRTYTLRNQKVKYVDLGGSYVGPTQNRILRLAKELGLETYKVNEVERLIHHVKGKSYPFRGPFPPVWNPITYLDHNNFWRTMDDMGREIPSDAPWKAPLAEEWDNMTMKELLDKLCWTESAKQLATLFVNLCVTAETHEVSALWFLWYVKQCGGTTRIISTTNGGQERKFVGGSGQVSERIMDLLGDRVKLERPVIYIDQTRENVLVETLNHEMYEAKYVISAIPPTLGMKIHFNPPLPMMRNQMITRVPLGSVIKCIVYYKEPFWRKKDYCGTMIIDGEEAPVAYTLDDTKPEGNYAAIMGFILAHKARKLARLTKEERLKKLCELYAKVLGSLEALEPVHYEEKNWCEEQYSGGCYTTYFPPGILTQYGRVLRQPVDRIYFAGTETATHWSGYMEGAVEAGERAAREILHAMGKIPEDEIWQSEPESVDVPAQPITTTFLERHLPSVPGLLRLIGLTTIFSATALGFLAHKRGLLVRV
Nature of the experiment: Inhibition of human recombinant MAO-B assessed as inhibition of production of hydrogen peroxide at 100 uM after 15 mins by the Amplex Red fluorimetric method.

The target in experiment [3] is T2, Amine oxidase [flavin-containing] B. Briefly: Inhibition of human recombinant MAO-B assessed as inhibition of production of hydrogen peroxide at 1 mM after 15 mins by the Amplex Red fluorimetric method.

As for `O=C(O)c1coc2ccccc2c1=O`, the IC50 entry in experiment [1] is “Not Active”.

Consider `O=C(O)c1cc(=O)c2ccccc2o1` [CHROMOCARB], for which the IC50 result in experiment [1] and in experiment [2] was “Not Active” throughout. For `O=C(NCCN1CCOCC1)c1ccc(Cl)cc1` [MOCLOBEMIDE], the IC50 result in experiment [3] is on record as “Not Active”.
